Patent publication US20070037882A1, “Remedy for cerebral neurodegenerative diseases using ppar agonist” (Astellas Pharma Inc., priority 2003, published 2007)

Key:
SH-SY5Y cells [1] = assay: Thapsigargin-induced cellular death model, apoptosis by caspase-3/7 assay; type: cell-based, human; conditions: for suppression of caspase-3/7 activity (in words): SH-SY5Y, thapsigargin; for Caspase 3/7 activity: thapsigargin + (100 nM), 3 h
SH-SY5Y cells [2] = assay: Thapsigargin-induced cellular death model, dead cells by LDH assay; type: cell-based, human; conditions: thapsigargin + (100 nM), 24 h, concentration not given
Procedure: SH-SY5Y cells were plated on a 96-well plate (70,000 cell/well in 100 μl DMEM low glucose 10% fetal bovine serum) for overnight culturing, from which the culture medium was removed with an aspirator. Then, DMEM without serum was added at 50 μl/well. […] 2 hours later, DMEM without serum containing 600 nM thapsigargin was added at 20 μl/well. (Thapsigargin to a final 100 nM concentration) (For a control, DMEM without serum alone was added.) 24 hours later, the absorbance at 490 nm was assayed with a cytotoxicity detection kit (Roche) to assay the LDH activity. […] An apparent correlation between the result of the viable cell count as determined by MTT assay in Example 1 and the LDH activity is shown. The above results clearly indicate that the PPARδ agonists are effective on the suppression of the thapsigargin-induced cellular death.

SH-SY5Y cells [3] = assay: Staurosporine-induced cellular death model, dead cells by LDH assay; type: cell-based, human; conditions: staurosporine + (150 nM), 24 h
Procedure: SH-SY5Y cells were plated on a 96-well plate (70,000 cell/well in 100 μl DMEM low glucose 10% fetal bovine serum) for overnight culturing, from which the culture medium was removed with an aspirator. Then, DMEM without serum was added at 50 μl/well. […] 2 hours later, DMEM without serum containing 900 nM staurosporine was added at 20 μl/well. (Staurosporine to a final 150 nM concentration) (For a control, DMEM without serum alone was added.) 24 hours later, LDH activity was assayed by measuring the absorbance at 490 nm, using Cytotoxicity detection kit (Roche). […] An apparent correlation is observed with the results of viable cells as determined by the MTT assay in Example 9.

[4] = tested on: GAL4-human PPARα fusion protein; assay: GAL4 reporter gene assay in CV-1 cells, human PPARα; type: cell-based; conditions: first 'Human PPAR-•' line (taken as α), pG5luc reporter
[5] = tested on: GAL4-human PPARγ fusion protein; assay: GAL4 reporter gene assay in CV-1 cells, human PPARγ; type: cell-based; conditions: second 'Human PPAR-•' line (taken as γ), pG5luc reporter
[6] = tested on: GAL4-human PPARδ fusion protein; assay: GAL4 reporter gene assay in CV-1 cells, human PPARδ; type: cell-based; conditions: third 'Human PPAR-•' line (taken as δ), pG5luc reporter
[7] = tested on: GAL4-murine PPARγ fusion protein; assay: GAL4 reporter gene assay in CV-1 cells, murine PPARγ; type: cell-based; conditions: second 'Murine PPAR-•' line (taken as γ), pG5luc reporter
PPARγ = molecular target: T1, PPARγ (Homo sapiens, UniProt P37231); conditions: FEBS Letters 473 (2000) 333-336; read-out: affinity to PPARγ (Ki); cited from earlier work
T1 sequence (P37231 1-505): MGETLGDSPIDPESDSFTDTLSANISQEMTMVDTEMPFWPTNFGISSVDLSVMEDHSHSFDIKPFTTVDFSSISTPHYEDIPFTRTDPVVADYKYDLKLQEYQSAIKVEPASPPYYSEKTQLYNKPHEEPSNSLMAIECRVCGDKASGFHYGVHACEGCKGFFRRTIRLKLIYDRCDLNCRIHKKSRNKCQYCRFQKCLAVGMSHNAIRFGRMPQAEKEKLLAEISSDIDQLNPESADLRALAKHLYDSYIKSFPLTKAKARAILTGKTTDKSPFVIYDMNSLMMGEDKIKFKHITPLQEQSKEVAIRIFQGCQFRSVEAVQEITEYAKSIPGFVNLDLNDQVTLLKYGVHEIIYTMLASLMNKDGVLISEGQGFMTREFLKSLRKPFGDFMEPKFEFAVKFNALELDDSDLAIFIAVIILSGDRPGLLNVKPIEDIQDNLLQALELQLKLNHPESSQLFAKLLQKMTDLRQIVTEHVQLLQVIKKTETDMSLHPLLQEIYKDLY

PPARδ = molecular target: T2, PPARδ (Homo sapiens, UniProt Q03181); conditions: FEBS Letters 473 (2000) 333-336; read-out: affinity to PPARδ (Ki); cited from earlier work
T2 sequence (Q03181 1-441): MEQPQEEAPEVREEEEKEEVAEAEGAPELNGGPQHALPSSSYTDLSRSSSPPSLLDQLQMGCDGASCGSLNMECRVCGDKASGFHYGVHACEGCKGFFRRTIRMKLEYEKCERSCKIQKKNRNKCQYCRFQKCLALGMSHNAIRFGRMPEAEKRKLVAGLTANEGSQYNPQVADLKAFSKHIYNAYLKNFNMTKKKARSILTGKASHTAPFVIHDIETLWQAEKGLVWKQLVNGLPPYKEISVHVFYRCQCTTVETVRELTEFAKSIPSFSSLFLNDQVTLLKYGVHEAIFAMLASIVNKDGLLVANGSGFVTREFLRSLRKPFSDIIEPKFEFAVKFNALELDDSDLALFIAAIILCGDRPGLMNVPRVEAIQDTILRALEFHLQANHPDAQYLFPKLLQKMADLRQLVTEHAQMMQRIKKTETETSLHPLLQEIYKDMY

[8] = tested on: GAL4-murine PPARα fusion protein; assay: GAL4 reporter gene assay in CV-1 cells, murine PPARα; type: cell-based; conditions: first 'Murine PPAR-•' line (taken as α), pG5luc reporter
[9] = tested on: GAL4-murine PPARδ fusion protein; conditions: third 'Murine PPAR-•' line (taken as δ); CV-1 cells, pG5luc reporter
[10] = 2nd '+' line (presumably 0.1 μM)
[11] = 4th '+' line (presumably 10 μM)
[12] = 5th '+' line (presumably 100 μM)

Compound | suppression of caspase-3/7 activity (in words) (SH-SY5Y cells [1]) | Caspase 3/7 activity (SH-SY5Y cells [1]; compound 1 μM) [RFLU] | Caspase 3/7 activity (SH-SY5Y cells [1]; compound 10 μM) [RFLU] | Caspase 3/7 activity (SH-SY5Y cells [1]; compound 100 μM) [RFLU] | LDH release A490 (SH-SY5Y cells [2]; [10]) | LDH release A490 (SH-SY5Y cells [2]; 3rd '+' line (presumably 1 μM)) | LDH release A490 (SH-SY5Y cells [2]; [11]) | LDH release A490 (SH-SY5Y cells [2]; [12]) | LDH release A490 (SH-SY5Y cells [3]; compound 0.1 μM) | LDH release A490 (SH-SY5Y cells [3]; compound 1 μM) | LDH release A490 (SH-SY5Y cells [3]; compound 10 μM) | Concentration for action exertion [4] [M] | Caspase 3/7 activity (SH-SY5Y cells [1]; compound 0.1 μM) [RFLU] | Concentration for action exertion [5] [M] | Concentration for action exertion [6] [M] | Concentration for action exertion [7] [M] | Ki (PPARγ) [nM] | Ki (PPARδ) [nM] | Concentration for action exertion [8] [M] | Concentration for action exertion [9] [M]
Cc1cc(SCc2sc(-c3ccc(C(F)(F)F)cc3)nc2C)ccc1OCC(=O)O [GW501516] | suppress the activity of caspase-3/7 | 237165 ± 5248 | 125951 ± 6465 | 421972 ± 21782 | 0.6225 ± 0.0229 | 0.5750 ± 0.0212 | 0.3325 ± 0.0259 | 0.6675 ± 0.0328 | 0.5430 ± 0.0264 | 0.5201 ± 0.0313 | 0.4025 ± 0.0188 |  |  |  |  |  |  |  |  | 
CCCc1c(OCCCOc2ccc(OCC(=O)O)cc2)ccc(C(C)=O)c1O [L-165041, 4-[3-[2-propyl-3-hydroxy-4-acetyl]phenoxy]propyloxyphenoxy acetic acid] | suppress the activity of caspase-3/7 | 652843 ± 8229 | 554233 ± 23703 | 242770 ± 5414 | 0.6758 ± 0.0183 | 0.6295 ± 0.0139 | 0.6029 ± 0.0135 | 0.2987 ± 0.0128 | 0.5330 ± 0.0298 | 0.5230 ± 0.0160 | 0.5319 ± 0.0267 | 10 | 732549 ± 24888 | 10 | 0.1 | 10 | 730 | 6 | >100 | 0.1
